Assay results from patent US20250127136A1, “NOVEL METHOD FOR PROMOTING NODULATION IN PLANTS” (UNIVERSITE TOULOUSE III-PAUL SABATIER, priority 2015, published 2025).

What was measured:
[1] = system: Hb2; test: Expression of the gene Hb2 in roots of watered soybean plants (qRT-PCR); type: in vivo, Glycine max; settings: plants watered with miPEP172c at 0,01 μM vs control peptide at 0.01 μM (FIG. 6)
Procedure: (§1) Each experiment was repeated from two to three times.
(§2) The plants are regularly watered with the “caisson” medium.
(§3) The treatments are performed every two days.

[2] = system: nifD; test: Expression of nifD revealed by nifD-LacZ fusions in nodules; type: in vivo, Glycine max; settings: nodules of plants treated with miPEP172c vs control peptide (FIGS. 6 and 8)
Procedure: (§4) After sterilisation of the grains for 3 min in bleach diluted ¼, then rinsing with sterile water, the grains are incubated for 2 hours in water. Lastly, the grains are placed in a petri dish with damp paper towels at 28° C. Once sprouted, the grains are placed in a small pot containing oil dry® medium under a glass cover. After a few days' growth, the plants of which the development is uniform are selected for the experiment and transferred into a larger pot.
(§5) The bacteria are placed in culture in Campbel liquid medium (K2PO4:0.5 g/l, MgSO4 7H2O: 0.2 g/l, NaCl: 0.1 g/l, mannitol: 10 g/l, yeast extract: 2.5 g/l, Casamino acid: 0.5 g/l) (5 ml) at 28° C., then transferred to an Erlenmeyer flask containing 100 ml of Campbel medium. After a few days of culture, when the DO is 0.3 at 595 nm, the 100 ml of culture of B. japonicum were centrifuged for 30 min at 4000 rpm. The supernatant was discarded and the pellet resuspended in “caisson” culture medium (Lullien et al., Plant gene expression in effective and ineffective root nodules of alfalfa (Medicago sativa). Plant Mol Biol 9: 469-478, 1987) to achieve a DO of 0.05 at 595 nm. Each plant is inoculated with 20 ml of this solution. The plants are regularly watered with the “caisson” medium.
(§6) The treatment is performed by watering plants with the concentrated solution of miPEP or the equivalent of solvent solution for the control treatment. […]

[3] = system: NIN; test: Expression of the gene NIN in roots of watered soybean plants (qRT-PCR); type: in vivo, Glycine max; settings: plants watered with miPEP172c at 0,01 μM vs control peptide at 0.01 μM (FIG. 6)
Procedure: as §1, §2, §3

[4] = system: Glycine max; test: Fresh pod weight of soybean plants watered with miPEP; type: in vivo; settings: watering with 0.1 μM miPEP172c vs solvent (FIG. 4)
Procedure: as §4, §5, §6

[5] = system: miR172c; test: Measurement of the expression of miR172c in roots of watered soybean plants (qRT-PCR); type: in vivo, Glycine max; settings: plants watered with miPEP172c at 0.1 μM vs control (FIG. 1) or 0.01 μM vs control peptide (FIG. 6)
Procedure: as §1, §2, §3

[6] = system: NNC1; test: Expression of the gene NNC1 in roots of watered soybean plants (qRT-PCR); type: in vivo, Glycine max; settings: plants watered with miPEP172c at 0,01 μM vs control peptide at 0.01 μM (FIG. 6)
Procedure: as §1, §2, §3

[7] = system: ENOD40-1; test: Expression of the gene ENOD40-1 in roots of watered soybean plants (qRT-PCR); type: in vivo, Glycine max; settings: plants watered with miPEP172c at 0,01 μM vs control peptide at 0.01 μM (FIG. 6)
Procedure: as §1, §2, §3

[8] = system: Glycine max; test: Nitrogen concentration in the aerial parts of soybean plants watered with miPEP; type: in vivo; settings: watering with 0.1 μM miPEP172c vs solvent (FIG. 3)
Procedure: The “nitrogen content” corresponds to the concentration of nitrogen in the plant or in part of the plant. For example, it can be the concentration of nitrogen in the aerial parts in g of nitrogen per kg of dry leaf weight. This concentration of nitrogen can be determined by techniques known to a person skilled in the art. For example, one method consists of burning a sample of known mass at an elevated temperature (approximately 900° C.) in the presence of oxygen, leading to a release of carbon dioxide, water, and nitrogen. The gases are then passed over particular columns (such as an aqueous potassium hydroxide solution), which absorb the carbon dioxide and water. A column containing a detector of thermal conductivity at the end is then used to separate the nitrogen from all residual carbon dioxide and the water, and the content of residual nitrogen is quantified.
as §2, §3

[9] = system: nifH; test: Expression of the gene nifH in roots of watered soybean plants (qRT-PCR); type: in vivo, Glycine max; settings: plants watered with miPEP172c at 0,01 μM vs control peptide at 0.01 μM (FIG. 6)
Procedure: as §1, §2, §3

[10] = system: NSP1; settings: plants watered with miPEP172c at 0,01 μM vs control peptide at 0.01 μM (FIG. 6)
Procedure: as §4, §5, §6

[11] = system: Glycine max; test: Number of nodules in soybean plants inoculated with Bradirhizobium japonicum and watered with miPEP; type: in vivo; settings: watering with 0.1 μM miPEP vs solvent (FIGS. 2, 9) or control peptide (FIG. 5)
Procedure: as §4, §5, §6

[12] = system: Glycine max; test: Root mass (fresh root weight) of soybean plants watered with miPEP; type: in vivo; settings: watering with miPEP172c vs control peptide at 0.01 μM (FIG. 7)
Procedure: as §4, §5, §6

Substance: miPEP172c: peptide MWVLCLFCWPTYTHGS coded by an open reading frame of the primary transcript of miR172c in Glycine max (SEQ ID NO: 2; Glycine max)
- relative expression of the gene Hb2 [1]: increase
- fixation of nitrogen (NifH expression by RT-qPCR and nifD::LacZ fusions) [2]: effective fixation of nitrogen
- relative expression of the gene NIN [3]: increase
- fresh pod weight [4]: significantly increases
- relative expression of miR172c [5]: increases
- relative expression of the gene NNC1 [6]: reducing
- relative expression of the gene ENOD40-1 [7]: increase
- nitrogen content of the aerial parts [8]: significantly increases
- relative expression of the gene NifH [9]: increase
- relative expression of the gene NSP1 [10]: increase
- number of nodules (per gram of fresh root weight) [11]: significantly increases
- development of the roots (fresh root weight) [12]: No effect

Substance: miPEP167c: peptide MKGVHHFFHHKYVGLRG coded by an open reading frame of the primary transcript of miR167c in Glycine max (Glycine max)
- number of nodules (per gram of fresh root weight) [11]: significantly increases
